Experimental data as given in the NIST ThermoML archive (doi:10.1021/je4005323).
Numbers after ± are expanded uncertainties.

Details: Liquid; for speed of sound: Pulse-echo method; for mass density: Vibrating tube method

`CCCCCCCC/C=C\CCCCCCCC(=O)OC` [methyl cis-9-octadecenoate] gave a speed of sound (343.15 K, 80000 kPa) of 1575.4 ± 3.4 m/s, a mass density (343.15 K, 80000 kPa) of 884.4 ± 0.7 kg/m3 and a speed of sound (343.15 K, 90000 kPa) of 1609.4 ± 3.5 m/s. For the same molecule, the mass density (343.15 K, 90000 kPa) was 889 ± 0.8 kg/m3, the speed of sound (343.15 K, 100000 kPa) was 1641.6 ± 5.1 m/s and the mass density (343.15 K, 100000 kPa) was 893.4 ± 0.8 kg/m3. It also gave a speed of sound (343.15 K, 110000 kPa) of 1672.6 ± 5.2 m/s, a speed of sound (343.15 K, 120000 kPa) of 1701.9 ± 5.3 m/s and a speed of sound (343.15 K, 130000 kPa) of 1729.9 ± 5.4 m/s. The speed of sound (343.15 K, 140000 kPa) was 1757.3 ± 5.5 m/s, the speed of sound (343.15 K, 150000 kPa) was 1783.8 ± 5.5 m/s and the speed of sound (343.15 K, 160000 kPa) was 1809.7 ± 5.6 m/s. The speed of sound (343.15 K, 170000 kPa) was 1834.3 ± 5.7 m/s, the speed of sound (343.15 K, 180000 kPa) was 1859.7 ± 5.8 m/s and the speed of sound (343.15 K, 190000 kPa) was 1883.4 ± 5.8 m/s. The speed of sound (343.15 K, 200000 kPa) was 1905.8 ± 5.9 m/s, the mass density (353.15 K, 101.3 kPa) was 830.4 ± 0.6 kg/m3 and the mass density (353.15 K, 10000 kPa) was 838 ± 0.6 kg/m3. The mass density (353.15 K, 20000 kPa) was 845.1 ± 0.6 kg/m3, the mass density (353.15 K, 30000 kPa) was 851.5 ± 0.6 kg/m3 and the mass density (353.15 K, 40000 kPa) was 857.5 ± 0.7 kg/m3. For the same molecule, the mass density (353.15 K, 50000 kPa) was 863.3 ± 0.7 kg/m3, the mass density (353.15 K, 60000 kPa) was 868.7 ± 0.7 kg/m3 and the mass density (353.15 K, 70000 kPa) was 873.8 ± 0.7 kg/m3. For the same molecule, the mass density (353.15 K, 80000 kPa) was 878.7 ± 0.8 kg/m3, the mass density (353.15 K, 90000 kPa) was 883.6 ± 0.8 kg/m3 and the mass density (353.15 K, 100000 kPa) was 888.2 ± 0.8 kg/m3. For the same molecule, the speed of sound (363.15 K, 101.3 kPa) was 1170.9 ± 2.7 m/s, the mass density (363.15 K, 101.3 kPa) was 823.2 ± 0.6 kg/m3 and the speed of sound (363.15 K, 10000 kPa) was 1228.2 ± 2.8 m/s. For the same molecule, the mass density (363.15 K, 10000 kPa) was 831.3 ± 0.6 kg/m3, the speed of sound (363.15 K, 20000 kPa) was 1280.6 ± 2.9 m/s and the mass density (363.15 K, 20000 kPa) was 838.7 ± 0.6 kg/m3. It also gave a speed of sound (363.15 K, 30000 kPa) of 1329.3 ± 3 m/s, a mass density (363.15 K, 30000 kPa) of 845.5 ± 0.6 kg/m3 and a speed of sound (363.15 K, 40000 kPa) of 1374 ± 3 m/s. The mass density (363.15 K, 40000 kPa) was 851.8 ± 0.7 kg/m3, the speed of sound (363.15 K, 50000 kPa) was 1414.4 ± 3.1 m/s and the mass density (363.15 K, 50000 kPa) was 857.7 ± 0.7 kg/m3. For the same molecule, the speed of sound (363.15 K, 60000 kPa) was 1454.6 ± 3.2 m/s, the mass density (363.15 K, 60000 kPa) was 863.1 ± 0.7 kg/m3 and the speed of sound (363.15 K, 70000 kPa) was 1492.2 ± 3.3 m/s. The mass density (363.15 K, 70000 kPa) was 868.4 ± 0.7 kg/m3, the speed of sound (363.15 K, 80000 kPa) was 1527.5 ± 3.3 m/s and the mass density (363.15 K, 80000 kPa) was 873.3 ± 0.8 kg/m3. The speed of sound (363.15 K, 90000 kPa) was 1563.5 ± 3.4 m/s, the mass density (363.15 K, 90000 kPa) was 878.1 ± 0.8 kg/m3 and the speed of sound (363.15 K, 100000 kPa) was 1597.2 ± 5 m/s. The mass density (363.15 K, 100000 kPa) was 882.9 ± 0.8 kg/m3, the speed of sound (363.15 K, 110000 kPa) was 1629.1 ± 5.1 m/s and the speed of sound (363.15 K, 120000 kPa) was 1659.3 ± 5.2 m/s. The speed of sound (363.15 K, 130000 kPa) was 1687.5 ± 5.3 m/s, the speed of sound (363.15 K, 140000 kPa) was 1715.4 ± 5.3 m/s and the speed of sound (363.15 K, 150000 kPa) was 1741.8 ± 5.4 m/s. It also gave a speed of sound (363.15 K, 160000 kPa) of 1766.9 ± 5.5 m/s, a speed of sound (363.15 K, 170000 kPa) of 1793.1 ± 5.6 m/s and a speed of sound (363.15 K, 180000 kPa) of 1817.7 ± 5.6 m/s. The speed of sound (363.15 K, 190000 kPa) was 1841.2 ± 5.7 m/s, the speed of sound (363.15 K, 200000 kPa) was 1864.9 ± 5.8 m/s and the mass density (373.15 K, 101.3 kPa) was 815.8 ± 0.6 kg/m3. It also gave a mass density (373.15 K, 10000 kPa) of 824.2 ± 0.6 kg/m3, a mass density (373.15 K, 20000 kPa) of 832 ± 0.6 kg/m3 and a mass density (373.15 K, 30000 kPa) of 839.1 ± 0.6 kg/m3. The mass density (373.15 K, 40000 kPa) was 845.7 ± 0.7 kg/m3, the mass density (373.15 K, 50000 kPa) was 851.8 ± 0.7 kg/m3 and the mass density (373.15 K, 60000 kPa) was 857.5 ± 0.7 kg/m3. It also gave a mass density (373.15 K, 70000 kPa) of 862.9 ± 0.8 kg/m3, a mass density (373.15 K, 80000 kPa) of 868.2 ± 0.8 kg/m3 and a mass density (373.15 K, 90000 kPa) of 873 ± 0.8 kg/m3. The mass density (373.15 K, 100000 kPa) was 878.1 ± 0.8 kg/m3, the speed of sound (383.15 K, 101.3 kPa) was 1108.9 ± 2.6 m/s and the mass density (383.15 K, 101.3 kPa) was 808.4 ± 0.6 kg/m3. The speed of sound (383.15 K, 10000 kPa) was 1170.4 ± 2.7 m/s, the mass density (383.15 K, 10000 kPa) was 817.4 ± 0.6 kg/m3 and the speed of sound (383.15 K, 20000 kPa) was 1226.5 ± 2.8 m/s. The mass density (383.15 K, 20000 kPa) was 825.5 ± 0.6 kg/m3, the speed of sound (383.15 K, 30000 kPa) was 1277.8 ± 2.9 m/s and the mass density (383.15 K, 30000 kPa) was 832.7 ± 0.7 kg/m3. The speed of sound (383.15 K, 40000 kPa) was 1324.6 ± 2.9 m/s, the mass density (383.15 K, 40000 kPa) was 839.5 ± 0.7 kg/m3 and the speed of sound (383.15 K, 50000 kPa) was 1367.4 ± 3 m/s. For the same molecule, the mass density (383.15 K, 50000 kPa) was 845.9 ± 0.7 kg/m3, the speed of sound (383.15 K, 60000 kPa) was 1407.7 ± 3.1 m/s and the mass density (383.15 K, 60000 kPa) was 851.8 ± 0.7 kg/m3. For the same molecule, the speed of sound (383.15 K, 70000 kPa) was 1446.1 ± 3.2 m/s, the mass density (383.15 K, 70000 kPa) was 857.5 ± 0.8 kg/m3 and the speed of sound (383.15 K, 80000 kPa) was 1481.7 ± 3.2 m/s. For the same molecule, the mass density (383.15 K, 80000 kPa) was 862.8 ± 0.8 kg/m3, the speed of sound (383.15 K, 90000 kPa) was 1516.9 ± 3.3 m/s and the mass density (383.15 K, 90000 kPa) was 867.9 ± 0.8 kg/m3. It also gave a speed of sound (383.15 K, 100000 kPa) of 1550.2 ± 4.9 m/s, a mass density (383.15 K, 100000 kPa) of 873.2 ± 0.8 kg/m3 and a speed of sound (383.15 K, 110000 kPa) of 1583.4 ± 5 m/s. It also gave a speed of sound (383.15 K, 120000 kPa) of 1615.8 ± 5.1 m/s, a speed of sound (383.15 K, 130000 kPa) of 1645.9 ± 5.1 m/s and a speed of sound (383.15 K, 140000 kPa) of 1674.2 ± 5.2 m/s. It also gave a speed of sound (383.15 K, 150000 kPa) of 1701.5 ± 5.3 m/s, a speed of sound (383.15 K, 160000 kPa) of 1729.4 ± 5.4 m/s and a speed of sound (383.15 K, 170000 kPa) of 1755.3 ± 5.5 m/s. The speed of sound (383.15 K, 180000 kPa) was 1781.4 ± 5.5 m/s, the speed of sound (383.15 K, 190000 kPa) was 1805.7 ± 5.6 m/s and the speed of sound (383.15 K, 200000 kPa) was 1828.3 ± 5.7 m/s. It also gave a speed of sound (393.15 K, 101.3 kPa) of 1078.5 ± 2.5 m/s, a mass density (393.15 K, 101.3 kPa) of 800.8 ± 0.6 kg/m3 and a speed of sound (393.15 K, 10000 kPa) of 1142.4 ± 2.6 m/s. For the same molecule, the mass density (393.15 K, 10000 kPa) was 810.2 ± 0.6 kg/m3, the speed of sound (393.15 K, 20000 kPa) was 1200 ± 2.7 m/s and the mass density (393.15 K, 20000 kPa) was 818.5 ± 0.6 kg/m3. The speed of sound (393.15 K, 30000 kPa) was 1252 ± 2.8 m/s, the mass density (393.15 K, 30000 kPa) was 826.2 ± 0.7 kg/m3 and the speed of sound (393.15 K, 40000 kPa) was 1299.9 ± 2.9 m/s. It also gave a mass density (393.15 K, 40000 kPa) of 833.2 ± 0.7 kg/m3, a speed of sound (393.15 K, 50000 kPa) of 1343.8 ± 3 m/s and a mass density (393.15 K, 50000 kPa) of 839.6 ± 0.7 kg/m3. It also gave a speed of sound (393.15 K, 60000 kPa) of 1384.5 ± 3 m/s, a mass density (393.15 K, 60000 kPa) of 845.7 ± 0.7 kg/m3 and a speed of sound (393.15 K, 70000 kPa) of 1423.6 ± 3.1 m/s. It also gave a mass density (393.15 K, 70000 kPa) of 851.7 ± 0.8 kg/m3, a speed of sound (393.15 K, 80000 kPa) of 1460.2 ± 3.2 m/s and a mass density (393.15 K, 80000 kPa) of 857.2 ± 0.8 kg/m3. For the same molecule, the speed of sound (393.15 K, 90000 kPa) was 1495.7 ± 3.3 m/s, the mass density (393.15 K, 90000 kPa) was 862.4 ± 0.8 kg/m3 and the speed of sound (393.15 K, 100000 kPa) was 1529.7 ± 4.8 m/s. It also gave a mass density (393.15 K, 100000 kPa) of 867.6 ± 0.9 kg/m3, a speed of sound (393.15 K, 110000 kPa) of 1562.8 ± 4.9 m/s and a speed of sound (393.15 K, 120000 kPa) of 1593.9 ± 5 m/s. It also gave a speed of sound (393.15 K, 130000 kPa) of 1624.5 ± 5.1 m/s, a speed of sound (393.15 K, 140000 kPa) of 1654.6 ± 5.2 m/s and a speed of sound (393.15 K, 150000 kPa) of 1683 ± 5.2 m/s. It also gave a speed of sound (393.15 K, 160000 kPa) of 1710.3 ± 5.3 m/s, a speed of sound (393.15 K, 170000 kPa) of 1736.2 ± 5.4 m/s and a speed of sound (393.15 K, 180000 kPa) of 1761.2 ± 5.5 m/s. For the same molecule, the speed of sound (393.15 K, 190000 kPa) was 1785.3 ± 5.5 m/s and the speed of sound (393.15 K, 200000 kPa) was 1809.7 ± 5.6 m/s.
